Consider one compound from US20230277449A1, “ORAL CAVITY POLYMERIC DELIVERY SYSTEMS” (YISSUM RESEARCH DEVELOPMENT COMPANY OF THE HEBREW …, priority 2020, published 2023).

Molecules are shown by their SMILES.

Series [1] is described as follows: In-vivo permeability study on rats (buccal administration).
Series [2] is described as follows: Simulation of the results in pig to human setup. As to conditions: same ABPD conditions, CL difference, Eq. 2.
Procedure: Plasma levels at steady state (Css) of the test substance following in-vivo buccal administration are calculated by Eq. 2:
where CL is the PK parameter of total clearance of the tested substance in-vivo.
A short description of series [3]: in vivo. As to conditions: pig. The text has this: 2.1.1 HPMC-based core ABPD preparation: All polymers were sieved through a 50-mesh sieve prior to their use.
The dispersion was slowly cooled with constant vigorous stirring to room temperature to obtain a solid. This solid was introduced into 8 mm flat-faced punch and die set. […] The diameter of the core was changed to 10.5 mm due to compression.
DDW and vigorously stirred until full dissolution to homogenous solution. The pH of the solution was adjusted to 5.9 by H3PO4 and KOH. The solution was cooled at room temperature for 10 min with continuous stirring.
2.1.8 In-vivo protocol of buccal administration: Following full recovery of 1 week, these (and additional) pigs underwent experiments with administration of buccal devices. The preparation of pigs for the experiments were done as previously described. Pigs were positioned on their left side. Inner side of the left cheek was gently cleaned with a gauze. […] The liquefied core was carefully collected and stored at -80° C. […] Cheeks were excised. […] The other half was fixated in 4% formaldehyde and stored for at least a month. Afterwards, these samples were trimmed, embedded in paraffin and sectioned. They were stained with Hematoxilyn and Eosin and underwent a histopathological examination. As a first step, each of the first 3 pigs received a different ABPD (as previously described): hydroxypropyl methylcellulose (HPMC) - based core, witepsol H15 - based core, or hydrogel - based core. After results evaluation, 3 additional pigs received hydrogel -based core ABPDs. Lastly, 1 pig received a hydrogel-based core ABPD with modified parameters.
The tubes were vigorously shaken for approximately 20 h. […] The supernatant was transferred to a clean tube, to which 0.3 ml of 1M NaOH and 0.7 ml 0.2 M Na2HPO4 were added. The tubes were vortex-mixed for 2 min. The pH was adjusted to 7 - 9 by NaOH and HCl. […] The supernatant was transferred to a clean tube and evaporated to dryness under vacuum. 3 ml of 0.1 M HCl were added to the tissue once again and vigorously shaken for 20 min. Afterwards, the tissue underwent the same procedure one more time with supernatant collected to respective tubes as previously. […] Samples were 2000-fold diluted in the reconstitution diluent and injected into LC-MS-MS system.
Following this analysis PK parameters were obtained.

Series [4] in a line: Intravenous administration of APO to rats. The format is in vivo. As to conditions: male, Wistar, rat, plasma, 2.0 mg/kg IV.
Procedure: Prior to surgery rats were fasted overnight with free access to water. Animals were anesthetized for the period of surgery by intra-peritoneal injection of 1 ml/kg of ketamine-xylazine solution (9:1, respectively). An indwelling cannula was placed in the right jugular vein of each animal for systemic blood sampling. After the surgery, rats were returned to cages overnight with free access to food and water.
Following this analysis, PK parameters were obtained.
The conditions of series [5]: cited from earlier work.

In the case of `CN1CCc2cccc3c2[C@H]1Cc1ccc(O)c(O)c1-3` [APO, apomorphine], the “APO in the plasma” value in series [1] (buccal solution, three anesthetized rats, 8 h) was “not detected”. In series [1] (rats), the “APO concentration in the solution inside the delivery device at 8 h vs initial” value is “did not change”. Besides, the “Css simulated for 70 kg human” value in series [2] was 4 to 6 ng/mL. In series [3], the “Cmax after removal smaller than with the four pigs” value came to 2 fold, the “Cmax of the peak higher than Css” value was 4 fold, the “time of Cmax” value is listed as 8.7 h and the “time of the peak after ABPD removal” value is given as “about 45 min”. Also, in series [3] (1.37 mg/kg), the Css experimentally obtained is given as 2.15 (±0.44) ng/ml and the “theoretical Css predicted” value is 2.24 ng/mL. In series [3] (2 mg/kg), the AUC came to 32.8 ng·h/mL, the area under the curve AUC(0-inf) is 50.7 ng·h/mL and the concentration peaked (Cmax) at 9.7 ng/mL. In addition, the clearance in series [4] is 153 mL/min/kg. Besides, the Vd in series [4] (read-out: volume of distribution) amounted to 3.3 L/kg. Moreover, the “log P” value in series [5] is given as 2.0.

The term AUC denotes concentration integrated over time. Higher therefore signals high exposure. As usually defined, the AUC(0-inf) is total exposure, with the tail of the curve extrapolated. High values mean high exposure, low ones low exposure. The term Cmax denotes the peak of the concentration-time curve. As usually defined, the clearance is the rate of elimination divided by the concentration. Read a low clearance as inefficient removal. Broadly, the log P is a log measure of how a compound divides between an organic and an aqueous phase.
